Source: patent US12678425B2, “Methods for treating against viruses” (Howard University, priority 2019, dated 2026)

Columns and labels:
[1] = tested on: HSV-1 strain 17; assay: Plaque formation unit (pfu) assay in HEp-2 cells
Method: The viral plaque assay was performed as previously described (Tang et al. “Determination of minimum herpes simplex virus type 1 components necessary to localize transcriptionally active DNA to ND10,” J. Virol. 2003; 77:5821-28), with slight modifications. The HSV-1 strain 17 was diluted serially in a volume of 1 mL. Then 300 ul of the virus was added onto confluent HEp-2 cell monolayers in 12-well plates; each dilution had 3 wells. After adsorption for 2 h, the medium was removed and the cells were washed twice with serum-free DMEM and overlaid with phenol-free DMEM containing 5% FCS, 0.5% low-melting point agarose (GIBCO), and 1% penicillin-streptomycin. The cells were incubated at 370 C for 48 hours. Neutral red was added on the agarose to stain the live cells. The plaques were counted and reported as pfu per mL. Mean pfu was determined after averaging the number of pfu from different dilutions.

[2] = tested on: HEp-2 cells; assay: Trypan blue exclusion cell viability; format: cell-based; details: 24-hour treatment
Method: In order to assess whether the compounds are producing any toxicity that can led to the cell deaths, we evaluated the cell viability by the trypan blue exclusion method. As long-term inhibition of RACK1 expression has been reported to cell cycle arrest, we limited our experimental treatments to 24 h and evaluated the cell viability of almost full confluent cells after 24 h of compound treatment.
In table 2, the viability of cells was measured with Trypan blue exclusion assay in a Cellometer (Nexcelom, Lawrence, MA). The percentage survival of the compound treated cells was evaluated along with the DMSO treated cells. The values represent the mean f SE of three separate well based replicates.

[3] = tested on: RACK1 protein expression; assay: Immunoblot of RACK1 expression under salt stress
Source text: The abundant leaf protein Rubisco large subunit (RbcL) was used as a loading control for the blot.
As the antibody cross-reacts with all three RACK1 isoforms in Arabidopsis, we used the double knockout (rack1ab) as a negative control on the blot (triple mutant is lethal at the early seedling stage). The large subunit of the abundant leaf protein rubisco (RbcL) was used as loading control for this blot.

[4] = tested on: HSV-1 proteins (ICP0, ICP8, gD); assay: Western blot of HSV-1 proteins in pre-treated HEp-2 cells; format: cell-based; details: 100 μM, 24 hours pre-treatment, 24 h post infection
Method: (§1) Panel A of FIG. 8 depicts time and concentration dependent virus protein expression to deduce an optimum drug treatment regimen. […] Tubulin expression was used as the loading control for the blots.
(§2) Proteins were separated by SDS-PAGE (25 μg loaded in each lane), transferred to nitrocellulose membranes (Amersham Inc., Piscataway, NJ, USA), and blocked with 5% nonfat milk for 60 min at room temperature. Membranes were incubated overnight at 4° C. with primary antibody, followed by incubation with a horseradish peroxidase-coupled secondary antibody and detection with enhanced chemiluminescence (Pierce, Rockford, IL, USA), according to standard methods. Membranes were stripped with stripping buffer (100 mM 2-mercaptoethanol, 2% SDS, 62.5 mM Tris-HCl, pH 6.8), washed with PBS-0.1% Tween-20, and used to detect additional proteins. For Arabidopsis lysates one-week old seedlings were treated with 10 uM of ABA in the presence/absence of the inhibitor compounds for 12 hours in a growth chamber (overnight) at 22° C. mostly in the dark. Lysates were isolated in lysis buffer (Cell Signaling, Danvers, MA) supplemented with plant protease inhibitor (Sigma-Aldrich), phosphatase inhibitor cocktail A and B (Santa Cruz Biotechnology, Dallas, TX), and N-Ethylamaleimide (Sigma-Aldrich, St. Louis, MO). […]

[5] = target: T1, RACK1 (Homo sapiens, UniProt P63244); assay: Western blot of RACK1 in pre-treated, HSV-1 infected HEp-2 cells; format: cell-based; details: 100 μM, 24 hours pre-treatment, 24 h post infection
T1 construct: endogenous in cells; host or cells: HEp-2 cells (ATCC), infected with HSV-1
Method: as §1, §2

[6] = tested on: RACK1A Y248 phosphorylation; assay: Immunoblot of ABA-induced RACK1A Y248 phosphorylation in seedlings; format: cell-based, Arabidopsis; details: 10 μM ABA, 12 hours

Row | SMILES | Plaque formation unit (pfu) ([1]; 0 hpl) [PFU/mL] | Plaque formation unit (pfu) ([1]; 6 hpl) | Plaque formation unit (pfu) ([1]; 12 hpl) | Plaque formation unit (pfu) ([1]; 24 hpl) | HEp-2 Cell viability, Mean (percentage survival) ([2]; 10 μM) [%] | HEp-2 Cell viability, Mean (percentage survival) ([2]; 100 μM) [%] | RACK1 protein expression under salt stress [3] | viral protein levels (ICP0, ICP8, gD) [4] | production of RACK1 [5] | ABA-induced RACK1A Y248 phosphorylation [6]
1 | COc1ccc(-c2nnc(SCC(=O)O)n2N)cc1 [SD-29-12] | 0 ± 0 | 3.8 ± 0.07 × 10^2 PFU/mL | 3.6 ± 0.04 × 10^3 PFU/mL | 2.6 ± 0.03 × 10^6 PFU/mL | 92.7 | 97.7 | – | – | – | –
2 | Nn1c(S)nnc1-c1ccc(F)cc1 [SD-29] | 0 ± 0 | 0 ± 0 PFU/mL | – | – | 94.0 | 92.7 | inhibited RACK1 protein expression | lower than that of DMSO- or SD-29-12-treated HEp-2 cells | reduced the production of RACK1 | prevented the ABA-induced Y248 phosphorylation
